The values that follow are results of earlier work, collected in patent publication US20080064711A1, “Composition for treating oral cavity and Mucousal infections” (J.P.M.E.D. LTD., priority 2002, published 2008).

Each structure is given as a SMILES string.

For data set [1], the system named is Gram negative bacteria that tend to colonize the oral cavity. The settings on record: patients undergoing radiation therapy; Spijkervet et al., 1990.
Data set [2] relates to human keratinocyte and fibroblast cultures. Conditions: Ponec et al. J Pharm Sci 1990.

For `[H]/N=C(\N/C(=N/[H])NCCCCCCNC(=N)NC(=N)Nc1ccc(Cl)cc1)Nc1ccc(Cl)cc1` [chlorhexidine], the “Effectiveness against Gram negative bacteria colonizing the oral cavity” value in data set [1] was “relatively ineffective”.

With `CC(O)CO` (centres unmarked) [propylene glycol], in data set [2], the “Cytotoxicity to human keratinocyte and fibroblast cultures” value (shortened to “Cytotoxicity”) is on record as “cytotoxic”.

In the case of `CN(C)C=O` [dimethylformamide], the “Cytotoxicity” value in data set [2] is “cytotoxic”.

Take `CCO` [Ethanol]: the “Cytotoxicity” value in data set [2] was “cytotoxic”.

For the compound `C[S+](C)[O-]` [dimethylsulfoxide], in data set [2], the “Cytotoxicity” value is “cytotoxic”.
